Measurements reported in US20230000773A1, “NOVEL HEADGROUP LIPID COMPOUNDS AND COMPOSITIONS FOR INTRACELLULAR DELIVERY OF THERAPEUTIC AGENTS” (ModernaTX, Inc., priority 2019, published 2023).

Columns and labels:
[1] = Size and polydispersity index of nanoparticles comprising compounds of the disclosure; format: physicochemical; conditions: compound:DSPC:cholesterol:PEG 2 50:10:38:2 mol %
Excerpt: Lipid nanoparticles (e.g., empty LNPs or loaded LNPs) may be characterized by a variety of methods. For example, microscopy (e.g., transmission electron microscopy or scanning electron microscopy) may be used to examine the morphology and size distribution of a nanoparticle composition. Dynamic light scattering or potentiometry (e.g., potentiometric titrations) may be used to measure zeta potentials. Dynamic light scattering may also be utilized to determine particle sizes. Instruments such as the Zetasizer Nano ZS (Malvern Instruments Ltd, Malvern, Worcestershire, UK) may also be used to measure multiple characteristics of a nanoparticle composition, such as particle size, polydispersity index, and zeta potential.
(§1) Nanoparticle compositions including a therapeutic and/or prophylactic can be optimized according to the selection of a compound according to Formula (I), (I-1), (A), (A-1), (A-1a), or (A-1b), the selection of additional lipids, the amount of each lipid in the lipid component, and the wt:wt ratio of the lipid component to the therapeutic and/or prophylactic. Nanoparticle compositions including DSPC as a phospholipid, cholesterol as a structural lipid, PEG 2 as a PEG lipid, and a compound according to Formula (I), (I-1), (A), (A-1), (A-1a), or (A-1b) were prepared. The ratios of the lipids were 50:10:38:2 mol % for the lipid according to Formula (I), (I-1), (A), (A-1), (A-1a), or (A-1b):DSPC:cholesterol:PEG 2. […]

[2] = Surface hydrophobicity by Generalized Polarization by Laurdan (GPL); format: physicochemical; conditions: normalized Generalized Polarization by Laurdan; higher N-GP = less polar surface
Excerpt: Nanoparticle compositions including a therapeutic and/or prophylactic can be optimized according to the selection of a compound according to Formula (I), (I-1), (A), (A-1), (A-1a), or (A-1b), the selection of additional lipids, the amount of each lipid in the lipid component, and the wt:wt ratio of the lipid component to the therapeutic and/or prophylactic. Nanoparticle compositions including DSPC as a phospholipid, cholesterol as a structural lipid, PEG 2 as a PEG lipid, and a compound according to Formula (I), (I-1), (A), (A-1), (A-1a), or (A-1b) were prepared. The ratios of the lipids were 50:10:38:2 mol % for the lipid according to Formula (I), (I-1), (A), (A-1), (A-1a), or (A-1b):DSPC:cholesterol:PEG 2.
Laurdan, a fluorescent aminonaphthalene ketone lipid, was post-inserted into the nanoparticle surface and the fluorescence spectrum of Laurdan was collected to determine the normalized Generalized Polarization (N-GP). Higher N-GP indicates a less polar surface.

[3] = Apparent LNP pKa by 2-(p-toluidino)-6-napthalene sulfonic acid (TNS) assay; format: physicochemical; conditions: pH at half of maximum fluorescence
hEPO mRNA = assay: hEPO expression in CD1-mice after intravenous administration of nanoparticles; format: in vivo; conditions: 6 h after intravenous administration, mRNA dose 0.5 mg/kg, N:P 3.4, compound:DSPC:cholesterol:PEG 2 50:10:38:2
Experimental: The expression of hEPO mRNA in CD1-mice was measured 6 h after intravenous administration of nanoparticles comprising a compound of the disclosure, DSPC, cholesterol, and PEG 2 in a ratio of 50:10:38:2. […] Each composition was dosed to 8 animals at an mRNA dose of 0.5 mg/kg.

[4] = Encapsulation efficiency (% EE), ribogreen; format: physicochemical; conditions: nanoparticles, compound:DSPC:cholesterol:PEG 2 50:10:38:2 mol %
Excerpt: The efficiency of encapsulation of a therapeutic and/or prophylactic describes the amount of therapeutic and/or prophylactic that is encapsulated or otherwise associated with a lipid nanoparticle (e.g., an empty LNP or a loaded LNP) after preparation, relative to the initial amount provided. The encapsulation efficiency is desirably high (e.g., close to 100%). The encapsulation efficiency may be measured, for example, by comparing the amount of therapeutic and/or prophylactic in a solution containing the lipid nanoparticle (e.g., an empty LNP or a loaded LNP) before and after breaking up the lipid nanoparticle (e.g., an empty LNP or a loaded LNP) with one or more organic solvents or detergents. Fluorescence may be used to measure the amount of free therapeutic and/or prophylactic (e.g., RNA) in a solution.
as §1

[5] = Heparin-sepharose binding of nanoparticles

| SMILES | PDI [1] | Size (nm) [1] [nm] | Average N-GP [2] | LogIC50 (pKa) [3] | Avg. [hEPO] mIU/mL (hEPO mRNA) [mIU/mL] | % EE (ribogreen) [4] [%] | Relative % Area Bound by LNP [5] [%] |
| --- | --- | --- | --- | --- | --- | --- | --- |
| CCCCCCCCC(CC)OC(=O)CCCCCCCN(CCCCCCCC(=O)OC(CCCCCCCC)CCCCCCCC)CCCNC1=CC(=O)NC1 (stereo not shown) [Compound 45, Heptadecan-9-yl 8-((3-((5-oxo-2,5-dihydro-1H-pyrrol-3-yl)amino)propyl)(8-oxo-8-(undecan-3-yloxy)octyl)amino)octanoate] | 0.141 | 81.8 | 0.655 | 6.85 | 1.15E+05 | 98.5 | 31.46 |
| CCCCCCCCC(CC)OC(=O)CCCCCCCN(CCCCCCCC(=O)OC(CCCCCCCC)CCCCCCCC)CCCNC1=NCC(=O)N1 (stereo not shown) [Compound 57, Heptadecan-9-yl 8-((3-((4-oxo-4,5-dihydro-1H-imidazol-2-yl)amino)propyl)(8-oxo-8-(undecan-3-yloxy)octyl)amino)octanoate] | 0.132 | 58.8 | 0.582 | 6.52 | 4.21E+04 | 98.2 | 1.09 |
| CCCCCCCCC(CC)OC(=O)CCCCCCCN(CCCCCCCC(=O)OC(CCCCCCCC)CCCCCCCC)CCCNS(C)(=N)=O (stereo not shown) [Compound 58, Heptadecan-9-yl 8-((3-(methylsulfonoamidimidamido)propyl)(8-oxo-8-(undecan-3-yloxy)octyl)amino)octanoate] | 0.142 | 86.9 | 0.493 | 7.05 | 9.03E+04 | 98.6 | 47.35 |
| CCCCCCCCC(CC)OC(=O)CCCCCCCN(CCCCCCCC(=O)OC(CCCCCCCC)CCCCCCCC)CCCNS(=O)(=O)NC (stereo not shown) [Compound 59, Heptadecan-9-yl 8-((3-((N-methylsulfamoyl)amino)propyl)(8-oxo-8-(undecan-3-yloxy)octyl)amino)octanoate] | 0.16 | 72.7 | 0.762 | 6.74 | 2.49E+05 | 98.3 | 0 |
| CCCCCCCCC(CC)OC(=O)CCCCCCCN(CCCCCCCC(=O)OC(CCCCCCCC)CCCCCCCC)CCCNC(=S)C1(C)CC1 (stereo not shown) [Compound 61, Heptadecan-9-yl 8-((3-(1-methylcyclopropane-1-carbothioamido)propyl)(8-oxo-8-(undecan-3-yloxy)octyl)amino)octanoate] | 0.375 | 79.6 | 0.900 | 5.95 | 1.52E+03 | 49.1 | 1.73 |
| CCCCCCCCC(CC)OC(=O)CCCCCCCN(CCCCCCCC(=O)OC(CCCCCCCC)CCCCCCCC)CCCNC(=O)c1ccc2c(c1)B(O)OC2 (stereo not shown) [Compound 62, Heptadecan-9-yl 8-((3-(1-hydroxy-1,3-dihydrobenzo[c][1,2]oxaborole-6-carboxamido)propyl)(8-oxo-8-(undecan-3-yloxy)octyl)amino)octanoate] | 0.233 | 124.3 | 0.890 | 6.80 | 1.60E+05 | 28.3 | 3.99 |
| CCCCCCCCC(CC)OC(=O)CCCCCCCN(CCCCCCCC(=O)OC(CCCCCCCC)CCCCCCCC)CCCNS(=O)(=O)CCOCc1ccccc1 (stereo not shown) [Compound 63, Heptadecan-9-yl 8-((3-((2-(benzyloxy)ethyl)sulfonamido)propyl)(8-oxo-8-(undecan-3-yloxy)octyl)amino)octanoate] | 0.273 | 126.4 | 0.866 | 6.41 | 1.90E+05 | 37.7 | 6.25 |
| CCCCCCCCC(CC)OC(=O)CCCCCCCN(CCCCCCCC(=O)OC(CCCCCCCC)CCCCCCCC)CCCNS(C)(=O)=O (stereo not shown) [Compound 65, Heptadecan-9-yl 8-((3-(methylsulfonamido)propyl)(8-oxo-8-(undecan-3-yloxy)octyl)amino)octanoate] | 0.155 | 73.2 | 0.713 | 6.81 | 3.64E+05 | 96.8 | 4.86 |
| CCCCCCCCC(CC)OC(=O)CCCCCCCN(CCCCCCCC(=O)OC(CCCCCCCC)CCCCCCCC)CCCNS(=O)(=O)c1ccn(C)n1 (stereo not shown) [Compound 68, Heptadecan-9-yl 8-((3-((1-methyl-1H-pyrazole)-3-sulfonamido)propyl)(8-oxo-8-(undecan-3-yloxy)octyl)amino)octanoate] | 0.109 | 63.2 | 0.822 | 6.71 | 4.29E+05 | 96.6 | 1.12 |
| CCCCCCCCC(CC)OC(=O)CCCCCCCN(CCCCCCCC(=O)OC(CCCCCCCC)CCCCCCCC)CCCNS(=O)(=O)c1ncc[nH]1 (stereo not shown) [Compound 69, Heptadecan-9-yl 8-((3-(1H-imidazole-2-sulfonamido)propyl)(8-oxo-8-(undecan-3-yloxy)octyl)amino)octanoate] | 0.108 | 66.8 | 0.812 | 6.56 | 2.61E+05 | 97 | 0.93 |
